Legend:
[1] = system: CT26 colon carcinoma tumors; assay: Colon carcinoma tumor growth and cure, two 224Ra wires with 5-FU; assay type: in vivo, Balb/c mice; settings: 5-FU 75 mg/kg 24 hours prior to wires; tumors 6-7 mm in diameter
Protocol: FIG. 7 is a graph showing the effect of two ^224Ra-loaded wires combined with 5-FU treatment on colon cancers. Treatment was applied to Balb/c mice bearing 6-7 mm in diameter tumors. Two ^224Ra wires: Tumor bearing mice treated with 2 ^224Ra wires, carrying activities in the range of 27.9-35.5 kBq (n=5). Two ^224Ra wires combined with 5-FU: administration of 75 mg/kg 5-FU 24 hours prior to treatment with 2 ^224Ra wires, carrying activities in the range of 32.1-33.8 kBq (n=5). Two Inert wires combined with 5-FU: administration of 75 mg/kg 5-FU 24 hours prior to treatment with 2 inert wires (n=6). Two Inert wires: Tumor bearing mice treated with 2 inert wires (n=6).
Tumor cell inoculation: Animals were inoculated intra-cutaneously with 5·10^5 SQ2 cells in 0.2 ml HBSS or 10^5 (CT26 and Panc-02) in 0.1 ml of HBSS (Biological industries, Beit haemek, Israel) into the low lateral side of the back. Local tumor growth was determined by measuring three mutually orthogonal tumor diameters with a digital caliper (Mitutoyo, Japan). The volume of tumor was calculated using the formula: V=(π/6)·D1D2D3, where D1, D2, D3 stand for the measured diameters […]

SQ2 cells = assay: XTT cell proliferation assay on radioactive (224Ra-implanted) microplates; assay type: cell-based, mouse
Protocol: Tumors: SQ2 cell line is a murine anaplastic cell line, which was generated from a SCC tumor that has developed spontaneously in a male BALB/c mouse. Panc02 is a murine pancreatic carcinoma cell line. CT26 cells is a N-nitroso-N-methylurethane-(NNMU) induced, undifferentiated colon carcinoma cell line which was purchased from the ATCC (CRL-2638). All cells were grown in Dulbecco's Modified Eagle Medium (DMEM) supplemented with 10% Fetal Calf Serum (Biological Industries, Beit Haemek, Israel), L-glutamine (2 mM), Penicillin (100 U/ml) and Streptomycin (100 μg/ml). […]
Cell proliferation assay: The antiproliferative effects of alpha particles and cisplatin, alone and in combination, were determined using a 3-bis (2-methoxy-4-nitro-5 sulfenyl)-(2H)-tetrazolium-5-carboxanilide (XTT) assay (Cell Proliferation Kit, Biological industries, Beit-haemek, Israel). […] After two hours of incubation, absorbance was analyzed using an automated spectrophotometer (VersaMax, Molecular Devices, USA) at 475 nm wavelength.
SQ2 cells were plated in 96 well plates implanted with ^224Ra atoms (0, 0.02, 0.063, 0.2, 0.63 and 2 Bq/mm^2, radioactive microplates). […] Cell numbers were assessed by the XTT assay 24, 48, and 72 hrs of incubation and expressed as percent of non-treated control cells.

SQ2 tumors = assay: Tumor growth and survival, two 224Ra wires at the tumor base with two cisplatin doses; assay type: in vivo, BALB/c mice
Protocol: Tumor cell inoculation: Animals were inoculated intra-cutaneously with 5·10^5 SQ2 cells in 0.2 ml HBSS or 10^5 (CT26 and Panc-02) in 0.1 ml of HBSS (Biological industries, Beit haemek, Israel) into the low lateral side of the back. Local tumor growth was determined by measuring three mutually orthogonal tumor diameters with a digital caliper (Mitutoyo, Japan). The volume of tumor was calculated using the formula: V=(π/6)·D1D2D3, where D1, D2, D3 stand for the measured diameters
Wire insertion: Wires, either loaded with ^224Ra or inert, cut to a length of 5-6 mm, were placed near the tip of a 23G needle attached to a 2.5 ml syringe (Picindolor, Rome, Italy) and inserted into the tumor by a plunger placed internally along the syringe axis.
Statistical analysis: The statistical significance (p-value) of the differences between tumor volumes in the various groups was assessed by applying Student's two-sided t-test and repeated measures ANOVA. Survival analysis (Mantel-Cox test) was carried out using Statsoft Statistica 7.0.
The following experiment was performed in order to examine the effect of two ^224Ra wires inserted horizontally to the base of each tumor in combination with 2 doses of chemotherapy. The cisplatin was administered using the same regime as that described in Example 3.
A pronounced difference between tumor volumes of the irradiated group (^224Ra wires) and the animals treated with Cisplatin (CP) can be seen 10 days following DART treatment. […] Moreover, when analyzing the results of the group treated with the combination of Cisplatin and ^224Ra wires, it appears that a major growth inhibition was achieved when both modalities were administrated concomitantly. […] Twenty-four days following DART treatment, the average tumor volumes of the combined treatment group was 14 fold smaller compared to the inert control group (300 mm^3 and 4286 mm^3 respectively), and 3 fold smaller compared to the best effect achieved by the radioactive wires alone (924 mm^3). […]

[2] = system: lung metastases of SQ2 tumors; assay: Histological assessment of lung metastatic load; assay type: in vivo, BALB/c mice; settings: treatment given alone, day 26, compared to inert wires
Protocol: Histology: Histological analysis was performed on BALB/c mice lungs, both treated and untreated. Immediately following their removal, lungs were fixed by a 4% formaldehyde solution (Sigma, Rehovot, Israel) for at least 24 hrs. The preserved specimens were embedded in paraffin, and sections (5-10 μm) were stained with hematoxylin-eosin (H&E) (Surgipath, Richmond, USA) and analyzed for metastases detection. Metastatic burden quantification was performed by summing the gray values of all the pixels in the region of interest (ROI) divided by the number of pixels using image J free software [http://rsbdotinfodotnihdotgov/ij/].
Histological assessment of lung sections was conducted in order to investigate the effect of the destruction of the primary tumor by DART wires on the development of metastases with or without the addition of cisplatin. Each 4 groups (Inert, ^224Ra wires, CP, CP+^224Ra wires) contained 3 animals. Animals were sacrificed at day 26 (lung metastases has been observed in this model at this time in previous studies) and lungs were harvested and processed for histological analysis and compared to normal lung tissues taken from healthy BALB/c mice. FIG. 5C describes the inhibition of lung metastatic load in mice treated with both intratumoral alpha irradiation and chemotherapy when compared to lungs of mice treated with inert wires.

SMILES	No. of animals with tumors following treatment [1]	proliferation inhibition (SQ2 cells; 0.3 μM cisplatin alone, 72 hours)	antiproliferative effect (SQ2 cells; 3 and 30 μM, drug alone)	average tumor volume, fold greater than the DART treated group (SQ2 tumors; 32 days after tumor cell inoculation, cisplatin 2 x 5 mg/kg vs two 224Ra wires)	prolongation of average survival compared to inert group (SQ2 tumors; two wires, cisplatin 2 x 5 mg/kg)	mean survival (SQ2 tumors; two wires, cisplatin 2 x 5 mg/kg, inert control 43.92 days)	effect on lung metastatic burden (in words) [2]
O=c1[nH]cc(F)c(=O)[nH]1 [Two inert wires and 5-FU, 5-fluorouracil]	6/6 with						
N.N.[Cl][Pt][Cl] [cisplatin]		21%	> 60%	2.14 fold	17%	51.38 days	decreased metastatic burden although less than the combined treatment

— patent US20100015042A1, “Combine radiation therapy and chemotherapy for treating cancer” (priority 2008, published 2010)
